US20100190724A1, “USE OF MELANOCYTE-STIMULATING HORMONE RELEASE-INHIBITING FACTOR AS A THERAPEUTIC AGENT IN THE TREATMENT OF PSEUDOMONAS AERUGINOSA INFECTION” (priority 2007, published 2010)
Where a SMILES comes first, the peptide text is derived from it.

Assays:
TNF alpha = TNF alpha production assay in LPS-stimulated macrophages (ELISA); type: cell-based, human; settings: PBMC-derived macrophages, peptide 10 micrograms per ml, lipopolysaccharide 200 ng/ml, overnight
Description: Not stimulated macrophages served as negative background control.

IL-2 = assay: Th1/Th2 cytokine profiling assay: IL-2; type: cell-based, Balb/c mice; settings: Ovalbumin-restimulated spleen cells; peptide 10 micrograms per ml; 72 hours
[1] = system: hepatitis B virus (HBV) ayw strain; assay: HBV replication assay in HepG2-2.2.15 cells (TaqMan PCR of secreted HBV DNA); type: cell-based; settings: peptide 10 micrograms per ml, six days, HBV DNA by TaqMan PCR
Protocol: HepG2-2.2.15 is a stable cell line containing the hepatitis B virus (HBV) ayw strain genome (ATCC Cat. No. CRL-11997). Antiviral compounds blocking any late step of viral replication such as transcription, translation, pregenome encapsidation, reverse transcription, particle assembly and release can be identified and characterized using this cell line.
HepG2-2.2.15 cells were plated in 96-well microtiter plates. After 16-24 hours the confluent monolayer of HepG2-2.2.15 cells was washed and the medium was replaced with complete medium containing test peptide—10 micrograms per ml—in duplicate. […] Three days later the culture medium was replaced with fresh medium containing the peptide. Six days following the initial administration of the peptide, the cell culture supernatants was collected, treated with pronase and DNAse and then used in a real-time quantitative TaqMan PCR assay. The PCR-amplified HBV DNA was detected in real-time by monitoring increases in fluorescence signals that result from the exonucleolytic degradation of a quenched fluorescence probe molecule that hybridizes to the amplified HBV DNA. For each PCR amplification, a standard curve was simultaneously generated using dilutions of purified HBV DNA. Antiviral activity was calculated from the reduction in HBV DNA levels (% virus control). […]

A549 cells [2] = assay: Propidium iodide cell cycle assay; type: cell-based, human; settings: peptide 10 micrograms per ml, 24 hours, FACS
[3] = Cytotoxicity (dye uptake cell viability) in HBV assay; type: cell-based; settings: human, HepG2-2.2.15 cells, peptide 10 micrograms per ml
Protocol: HepG2-2.2.15 cells were plated in 96-well microtiter plates. After 16-24 hours the confluent monolayer of HepG2-2.2.15 cells was washed and the medium was replaced with complete medium containing test peptide—10 micrograms per ml—in duplicate. Lamivudine (3TC) was used as the positive control, while media alone was added to the cells as a negative control (virus control). Three days later the culture medium was replaced with fresh medium containing the peptide. Six days following the initial administration of the peptide, the cell culture supernatants was collected, treated with pronase and DNAse and then used in a real-time quantitative TaqMan PCR assay. The PCR-amplified HBV DNA was detected in real-time by monitoring increases in fluorescence signals that result from the exonucleolytic degradation of a quenched fluorescence probe molecule that hybridizes to the amplified HBV DNA. For each PCR amplification, a standard curve was simultaneously generated using dilutions of purified HBV DNA. Antiviral activity was calculated from the reduction in HBV DNA levels (% virus control). A novel dye uptake assay was then employed to measure cell viability, which is used to calculate toxicity (% cell control).

Pseudomonas aeruginosa = type: cell-based; settings: 5 micrograms per ml
A549 cells [4] = assay: Apoptosis induction assay (Annexin-5); type: cell-based, human; settings: peptide 10 micrograms per ml, 24 hours
[5] = Cytotoxicity (MTS cell viability) in HIV-1 experiments; settings: human, CEM-SS cells
RAW 264.7 cells = assay: Phagocytosis assay (Fluorescein-labeled Escherichia coli, flow cytometry); type: cell-based, mouse; settings: peptide 10 micrograms per ml, 30 min preincubation, 60 min ingestion
A549 cells [6] = assay: Apoptosis prevention assay (C2 ceramide, Annexin-5); type: cell-based, human; settings: 30 min pretreatment with peptide 10 micrograms per ml, then C2 ceramide
Streptococcus pneumoniae = type: cell-based; settings: 5 micrograms per ml
IL-4 = assay: Th1/Th2 cytokine profiling assay: IL-4; type: cell-based, Balb/c mice; settings: Ovalbumin-restimulated spleen cells; peptide 10 micrograms per ml; 72 hours
HUVEC = assay: Endothelial tube formation assay; type: cell-based, human; settings: peptide 10 micrograms per ml, 20 hours
Description: Positive control was vehicle only.

[7] = system: Human Peripheral Blood Mononuclear Cells (PBMC); assay: B cell proliferation assay (SAC plus Interleukin-2, 3H-thymidine); type: cell-based; settings: peptide 10 micrograms per ml, 3H-thymidine incorporation
[8] = system: Human Peripheral Blood Mononuclear Cells (PBMC); assay: T cell proliferation assay (PHA, 3H-thymidine); type: cell-based; settings: peptide 10 micrograms per ml, 3H-thymidine incorporation
[9] = Cytotoxicity testing in MRC-5 cells (CellTiter 96); type: cell-based, human; settings: human, 6 days incubation, read-out: % Cell viability
Protocol: (§1) The following day, peptide was added and tested in duplicates.

IL-5 = assay: Th1/Th2 cytokine profiling assay: IL-5; type: cell-based, Balb/c mice; settings: Ovalbumin-restimulated spleen cells; peptide 10 micrograms per ml; 72 hours
MRSA = type: cell-based, Staphylococcus Aureus; settings: 5 micrograms per ml
TNF-a = assay: Th1/Th2 cytokine profiling assay: TNF-a; type: cell-based, Balb/c mice; settings: Ovalbumin-restimulated spleen cells; peptide 10 micrograms per ml; 72 hours
IFNγ = assay: Th1/Th2 cytokine profiling assay: IFNγ; type: cell-based, Balb/c mice; settings: Ovalbumin-restimulated spleen cells; peptide 10 micrograms per ml; 72 hours
HCMV strain AD169 = assay: HCMV plaque reduction assay in MRC-5 cells; type: cell-based, human cytomegalovirus; settings: peptide 10 micrograms per ml, 7-10 days
Description: Ganciclovir was used as positive control.

[10] = system: Primary Human endothelial cells (HUVEC); assay: Endothelial cell migration assay; type: cell-based; settings: peptide 10 micrograms per ml, 22 hours
HIV-1IIB = assay: HIV-1 antiviral assay (CPE reduction, MTS) in CEM-SS cells; type: cell-based; settings: peptide 10 micrograms per ml, 6 days post-infection
MRC-5 cells = assay: Cytotoxicity testing in MRC-5 cells (CellTiter 96); type: cell-based, human; settings: 6 days incubation
Protocol: as §1

CEM-SS cells = assay: Cytotoxicity (MTS cell viability) in HIV-1 experiments; settings: peptide 10 micrograms per ml, MTS

CC(C)C[C@H](NC(=O)[C@@H]1CCCN1)C(=O)NCC(N)=O [MSHRIF, Pro-Leu-Gly-NH2] (H-Pro-Leu-Gly-NH2)
% of LPS induction (TNF alpha): 88.2%
IL-2 spleen cells (% of control) (IL-2): 0.0 % of control
% inhibition of HBV replication in HEP G2 cells [1]: 10.9%
Cell cycle analysis G0/G1 (A549 cells [2]): 56.9
Cell cycle analysis G2/M (A549 cells [2]): 11.7
Cell cycle analysis S (A549 cells [2]): 31.4
viability at 144 h, 10 micrograms per ml [3]: 100%
% inhibition (Pseudomonas aeruginosa): 100.0%
% of induction (A549 cells [4]): 0.9%
viability at 10 micrograms per ml [5]: 98.4%
% of control phagocytosis (RAW 264.7 cells): 145.7%
% prevention of ceramide induced apoptosis (A549 cells [6]): 0.0%
% inhibition (Streptococcus pneumoniae): 0.0%
IL-4 spleen cells; TH2 response (% of control) (IL-4): 0.0 % of control
% inhibition of tube formation (HUVEC): 9.0%
% of SAC/IL2 induced control [7]: 79.2%
% of PHA induced control [8]: 80.8%
viability at 144 h [9]: 100%
IL-5 spleen cells; TH2 response (% of control) (IL-5): 56.7 % of control
% inhibition (MRSA): 0.0%
TNF-a spleen cells; TH1 response (% of control) (TNF-a): 81.4 % of control
IFNγ spleen cells; TH1 response (% of control) (IFNγ): 88.0 % of control
% plaque reduction (HCMV strain AD169): 0.0%
% inhibition of migration [10]: −8%
% CPE reduction in HIV-1 infected CEM-SS cells (HIV-1IIB): 0.0%

Nc1nc(O)c2ncn(COC(CO)CO)c2n1 [Ganciclovir, reference compound]
% Cell viability (MRC-5 cells): 100%

Cc1cn([C@H]2C[C@H](N=[N+]=[N-])[C@@H](CO)O2)c(=O)[nH]c1=O [AZT, reference compound]
% Cell viability (CEM-SS cells): 97%
% CPE reduction in HIV-1 infected CEM-SS cells (HIV-1IIB): 99%
